Laboratory results: the NIST ThermoML archive (doi:10.1016/j.jct.2014.07.017)
Numbers after ± are expanded uncertainties.

Test: mn = molality of the nth substance listed, in mol/kg
Settings: 298.15 K, 100 kPa, Liquid, Direct current cell with electrodes

SMILES: CCNCC(O)c1cccc(O)c1.Cl (stereo unspecified) [1-(3-hydroxyphenyl)-2-ethylaminoethanol hydrochloride] + O
- electrical conductivity (m1 = 0.01028): 0.03 ± 0.001 S/m
- electrical conductivity (m1 = 0.01115): 0.033 ± 0.001 S/m
- electrical conductivity (m1 = 0.01209): 0.037 ± 0.001 S/m
- electrical conductivity (m1 = 0.01313): 0.041 ± 0.001 S/m
- electrical conductivity (m1 = 0.01425): 0.045 ± 0.001 S/m
- electrical conductivity (m1 = 0.01546): 0.051 ± 0.001 S/m
- electrical conductivity (m1 = 0.01677): 0.056 ± 0.001 S/m
- electrical conductivity (m1 = 0.0182): 0.061 ± 0.001 S/m
- electrical conductivity (m1 = 0.01896): 0.065 ± 0.001 S/m
- electrical conductivity (m1 = 0.01974): 0.068 ± 0.001 S/m
- electrical conductivity (m1 = 0.02057): 0.072 ± 0.001 S/m
- electrical conductivity (m1 = 0.02143): 0.075 ± 0.001 S/m
- electrical conductivity (m1 = 0.02232): 0.078 ± 0.001 S/m
- electrical conductivity (m1 = 0.02325): 0.082 ± 0.001 S/m
- electrical conductivity (m1 = 0.02422): 0.087 ± 0.001 S/m
- electrical conductivity (m1 = 0.02523): 0.09 ± 0.001 S/m
- electrical conductivity (m1 = 0.02628): 0.095 ± 0.001 S/m
- electrical conductivity (m1 = 0.02737): 0.101 ± 0.001 S/m
- electrical conductivity (m1 = 0.02851): 0.105 ± 0.001 S/m
- electrical conductivity (m1 = 0.0297): 0.109 ± 0.001 S/m
- electrical conductivity (m1 = 0.03094): 0.115 ± 0.001 S/m
- electrical conductivity (m1 = 0.03222): 0.12 ± 0.001 S/m
- electrical conductivity (m1 = 0.03357): 0.126 ± 0.001 S/m
- electrical conductivity (m1 = 0.03497): 0.132 ± 0.001 S/m
- electrical conductivity (m1 = 0.03643): 0.138 ± 0.001 S/m
- electrical conductivity (m1 = 0.03795): 0.145 ± 0.002 S/m
- electrical conductivity (m1 = 0.03953): 0.15 ± 0.002 S/m
- electrical conductivity (m1 = 0.04117): 0.155 ± 0.002 S/m
- electrical conductivity (m1 = 0.04289): 0.159 ± 0.002 S/m
- electrical conductivity (m1 = 0.04468): 0.165 ± 0.002 S/m
- electrical conductivity (m1 = 0.04654): 0.171 ± 0.002 S/m
- electrical conductivity (m1 = 0.04848): 0.177 ± 0.002 S/m
- electrical conductivity (m1 = 0.0505): 0.185 ± 0.002 S/m
- electrical conductivity (m1 = 0.0526): 0.191 ± 0.002 S/m
- electrical conductivity (m1 = 0.05479): 0.195 ± 0.002 S/m
- electrical conductivity (m1 = 0.05708): 0.203 ± 0.002 S/m
- electrical conductivity (m1 = 0.05945): 0.208 ± 0.002 S/m
- electrical conductivity (m1 = 0.06193): 0.216 ± 0.002 S/m
- electrical conductivity (m1 = 0.06451): 0.224 ± 0.002 S/m
- electrical conductivity (m1 = 0.0672): 0.232 ± 0.002 S/m
- electrical conductivity (m1 = 0.07): 0.241 ± 0.002 S/m
